Earlier results in PubChem BioAssay AID1259409 (Chemical Carcinogenesis Research Information System (CCRIS), 2018).

System: rodent chemically induced tumor inhibition, incidence and multiplicity
Experiment: CCRIS tumor inhibitor studies

CCCCCCCCCc1ccc(O)cc1
tumour outcome (control, treated, inhibition, significance) (Carcinogen: 7,12-DIMETHYLBENZ[A]ANTHRACENE, 57-97-6, Dose [Inhibitor]: 0, 25 PPM IN DIET FOR 50 WK BEGINNING 1 WK POST-CARCINOGEN DOSE (STUDY DURATION: 51 WK), Route [Inhibitor]: ORAL, Species: RAT, Strain/Sex: SPRAGUE-DAWLEY/FEMALE, Target Tissue: Type of Lesion: OVARY: ADENOCARCINOMA, Dose [Carcinogen]: 0.01 ML OF 0.5% DMBA IN OLIVE OIL INTO THE LEFT OVARY, ONCE, UNDER PENTOBARBITAL ANESTHESIA, Promoter: NONE USED): 7/20 (35%), 1/20 (5%), 86%, p=0.02 | tumour outcome (control, treated, inhibition, significance) (Carcinogen: 7,12-DIMETHYLBENZ[A]ANTHRACENE, 57-97-6, Dose [Inhibitor]: 0, 250 PPM IN DIET FOR 50 WK BEGINNING 1 WK POST-CARCINOGEN DOSE (STUDY DURATION: 51 WK), Route [Inhibitor]: ORAL, Species: RAT, Strain/Sex: SPRAGUE-DAWLEY/FEMALE, Target Tissue: Type of Lesion: OVARY: ADENOCARCINOMA, Dose [Carcinogen]: 0.01 ML OF 0.5% DMBA IN OLIVE OIL INTO THE LEFT OVARY, ONCE, UNDER PENTOBARBITAL ANESTHESIA, Promoter: NONE USED): 7/20 (35%), 1/20 (5%), 86%, p=0.02

COc1cc(CC(C)C(C)Cc2ccc(O)c(OC)c2)ccc1O (stereo not given)
tumour outcome (control, treated, inhibition, significance) (Carcinogen: 2,2'-DIHYDROXY-DI-N-PROPYLNITROSAMINE, 53609-64-6, N-ETHYL-N-HYDROXYETHYLNITROSAMINE, 13147-25-6, 3,2'-DIMETHYL-1,4-, Carcinogen: 2,2'-DIHYDROXY-DI-N-PROPYLNITROSAMINE, 53609-64-6, N-ETHYL-N-HYDROXYETHYLNITROSAMINE, 13147-25-6, 3,2'-DIMETHYL-1,4-, Dose [Inhibitor]: 0, 1% IN DIET FOR 4 WK BEGINNING 1 D PRIOR TO FIRST CARCINOGEN DOSE (STUDY DURATION: 36 WK), Route [Inhibitor]: ORAL, Species: RAT, Strain/Sex: F344/MALE, Target Tissue: Type of Lesion: KIDNEY: ADENOMA, Dose [Carcinogen]: 1000 MG/KG BW DHPN TWICE, 1500 MG/KG EHEN TWICE, 75 MG/KG BW DMAB 3 TIMES, SEQUENTIALLY OVER 3 WK, Promoter: NONE USED): 6/10 (60%), 5/12 (42%), 30%, not significant | tumour outcome (control, treated, inhibition, significance) (Carcinogen: 2,2'-DIHYDROXY-DI-N-PROPYLNITROSAMINE, 53609-64-6, N-ETHYL-N-HYDROXYETHYLNITROSAMINE, 13147-25-6, 3,2'-DIMETHYL-1,4-, Carcinogen: 2,2'-DIHYDROXY-DI-N-PROPYLNITROSAMINE, 53609-64-6, N-ETHYL-N-HYDROXYETHYLNITROSAMINE, 13147-25-6, 3,2'-DIMETHYL-1,4-, Dose [Inhibitor]: 0, 1% IN DIET FOR 4 WK BEGINNING 1 D PRIOR TO FIRST CARCINOGEN DOSE (STUDY DURATION: 36 WK), Route [Inhibitor]: ORAL, Species: RAT, Strain/Sex: F344/MALE, Target Tissue: Type of Lesion: LUNG: ADENOMA, Dose [Carcinogen]: 1000 MG/KG BW DHPN TWICE, 1500 MG/KG EHEN TWICE, 75 MG/KG BW DMAB 3 TIMES, SEQUENTIALLY OVER 3 WK, Promoter: NONE USED): 5/10 (50%), 6/12 (50%), 0%, not significant

O=C(/C=C/c1ccc(O)c(O)c1)O[C@@H]1C[C@](O)(C(=O)O)C[C@@H](O)[C@H]1O
tumour outcome (control, treated, inhibition, significance) (Carcinogen: 4-NITROQUINOLINE-1-OXIDE, 56-57-5, Dose [Inhibitor]: 0, 250 PPM IN DIET FOR 7 WK BEGINNING 1 WK PRIOR TO START OF CARCINOGEN TREATMENT (STUDY DURATION: 32 WK), Route [Inhibitor]: ORAL, Species: RAT, Strain/Sex: F344/MALE, Target Tissue: Type of Lesion: TONGUE: PAPILLOMA, Dose [Carcinogen]: 20 PPM IN DRINKING WATER FOR 5 WK, Promoter: NONE USED): 1/15 (7%), 1/15 (7%), 0%, not significant | tumour outcome (control, treated, inhibition, significance) (Carcinogen: 7,12-DIMETHYLBENZ[A]ANTHRACENE, 57-97-6, Dose [Inhibitor]: 10 UMOL IN 200 µL ACETONE/DMSO (90:10) 2/WK FOR 19 WK BEGINNING 1 WK POST CARCINOGEN DOSE (STUDY DURATION: 20 WK), Route [Inhibitor]: DERMAL, Species: MOUSE, Strain/Sex: CD-1/FEMALE, Target Tissue: Type of Lesion: SKIN: PAPILLOMA, Dose [Carcinogen]: 200 NMOL IN 200 µL ACETONE ONCE, Promoter: 12-O-TETRADECANOYLPHORBOL-13-ACETATE, 16561-29-8): 68%, 47%, 31%, not calculated | tumour outcome (control, treated, inhibition, significance) (Carcinogen: 7,12-DIMETHYLBENZ[A]ANTHRACENE, 57-97-6, Dose [Inhibitor]: 20 UMOL IN 200 µL ACETONE/DMSO (90:10) 2/WK FOR 19 WK BEGINNING 1 WK POST CARCINOGEN DOSE (STUDY DURATION: 20 WK), Route [Inhibitor]: DERMAL, Species: MOUSE, Strain/Sex: CD-1/FEMALE, Target Tissue: Type of Lesion: SKIN: PAPILLOMA, Dose [Carcinogen]: 200 NMOL IN 200 µL ACETONE ONCE, Promoter: 12-O-TETRADECANOYLPHORBOL-13-ACETATE, 16561-29-8): 68%, 27%, 60%, not calculated | tumour outcome (control, treated, inhibition, significance) (Carcinogen: N-METHYL-N-NITROSOUREA [684-93-5], Dose [Inhibitor]: 250 PPM IN DIET FOR 22 WK BEGINNING 1 WK POST LAST CARCINOGEN DOSE (STUDY DURATION: 35 WK), Route [Inhibitor]: ORAL, Species: RAT, Strain/Sex: F344/MALE, Target Tissue: Type of Lesion: GLANDULAR STOMACH: ADENOCARCINOMA, Dose [Carcinogen]: 400 PPM IN DRINKING WATER FOR 12 WK (STUDY DURATION: 35 WK), Promoter: NONE): 12/20 (60.0%), 4/17 (23.5%), 61%, p<0.03 | tumour outcome (control, treated, inhibition, significance) (Carcinogen: N-METHYL-N-NITROSOUREA [684-93-5], Dose [Inhibitor]: 500 PPM IN DIET FOR 22 WK BEGINNING 1 WK POST LAST CARCINOGEN DOSE (STUDY DURATION: 35 WK), Route [Inhibitor]: ORAL, Species: RAT, Strain/Sex: F344/MALE, Target Tissue: Type of Lesion: GLANDULAR STOMACH: ADENOCARCINOMA, Dose [Carcinogen]: 400 PPM IN DRINKING WATER FOR 12 WK (STUDY DURATION: 35 WK), Promoter: NONE): 12/20 (60.0%), 7/21 (33.3%), 45%, not significant | tumour outcome (control, treated, inhibition, significance) (Carcinogen: N-NITROQUINOLINE-1-OXIDE, 56-57-5, Dose [Inhibitor]: 0, 250 PPM IN DIET FOR 7 WK BEGINNING 1 WK PRIOR TO START OF CARCINOGEN TREATMENT (STUDY DURATION: 32 WK), Route [Inhibitor]: ORAL, Species: RAT, Strain/Sex: F344\MALE, Target Tissue: Type of Lesion: TONGUE: CARCINOMA, Dose [Carcinogen]: 20 PPM IN DRINKING WATER FOR 5 WK, Promoter: NONE USED): 9/15 (60%), 1/15 (7%), 88%, p=0.0025

NCCc1cc(O)c(O)cc1O
tumour outcome (control, treated, inhibition, significance) (Carcinogen: AZOXYMETHANE, 25843-45-2, Dose [Inhibitor]: 0, 42 MG/KG BW IN 0.9% SALINE TWICE ON FIRST DAY THEN 0, 105 MG/KG 1/2 WK FOR DURATION OF STUDY (STUDY DURATION: 35 WK), Dose [Inhibitor]: 0, 42 MG/KG BW IN 0.9% SALINE TWICE ON FIRST DAY THEN 0, 105 MG/KG 1/2 WK FOR DURATION OF STUDY (STUDY DURATION: 35 WK), Route [Inhibitor]: INTRAPERITONEAL, Species: RAT, Strain/Sex: WISTAR/MALE, Target Tissue: Type of Lesion: COLON: TUMOR, Dose [Carcinogen]: 7.4 MG/KG BW IN 0.9% SALINE 1/WK FOR 10 WK, Promoter: NONE USED): 14/20 (70%), 4/17 (24%), 66%, p<0.02 | tumour outcome (control, treated, inhibition, significance) (Carcinogen: N-METHYL-N'-NITRO-N-NITROSOGUANIDINE, 70-25-7, Dose [Inhibitor]: 0, 42 MG/KG 2/24 HR BEGINNING POST CARCINOGEN TREATMENT THEN 1 WK LATER 105 MG/KG 1/2 WK (STUDY DURATION: 52 WK), Route [Inhibitor]: INTRAPERITONEAL, Species: RAT, Strain/Sex: WISTAR/MALE, Target Tissue: Type of Lesion: STOMACH: ADENOCARCINOMA, Dose [Carcinogen]: 75 UG/ML IN DRINKING WATER FOR 25 WK, Promoter: NONE USED): 16/20 (80%), 9/20 (45%), 44%, p<0.05

O=C1O[C@@H]2[C@@H](O)CO[C@]2(O)[C@@]1(O)Cc1c[nH]c2ccccc12
tumour outcome (control, treated, inhibition, significance) (Carcinogen: 7,12-DIMETHYLBENZ[A]ANTHRACENE [57-97-6], Dose [Inhibitor]: 0, 16 MG IN 0.5 ML DMSO 1X/D FOR 3 D BEGINNING 2 D PRIOR TO CARCINOGEN DOSE (STUDY DURATION: 93 D), Route [Inhibitor]: GAVAGE, Species: RAT, Strain/Sex: SPRAGUE-DAWLEY/FEMALE, Target Tissue: Type of Lesion: MAMMARY GLAND: TUMOR, Dose [Carcinogen]: 15 MG IN 0.5 ML DMSO TOGETHER WITH THE LAST DOES OF INHIBITOR (STUDY DURATION: 93 D), Promoter: NONE): 63%, 60%, 5%, not significant | tumour outcome (control, treated, inhibition, significance) (Carcinogen: 7,12-DIMETHYLBENZ[A]ANTHRACENE [57-97-6], Dose [Inhibitor]: 0, 32.5 MG IN 0.5 ML DMSO 1X/D FOR 3 D BEGINNING 2 D PRIOR TO CARCINOGEN DOSE (STUDY DURATION: 93 D), Route [Inhibitor]: GAVAGE, Species: RAT, Strain/Sex: SPRAGUE-DAWLEY/FEMALE, Target Tissue: Type of Lesion: MAMMARY GLAND: TUMOR, Dose [Carcinogen]: 15 MG IN 0.5 ML DMSO TOGETHER WITH THE LAST DOES OF INHIBITOR (STUDY DURATION: 93 D), Promoter: NONE): 63%, 33%, 48%, p<0.05 | tumour outcome (control, treated, inhibition, significance) (Carcinogen: 7,12-DIMETHYLBENZ[A]ANTHRACENE [57-97-6], Dose [Inhibitor]: 0, 65 MG IN 0.5 ML DMSO 1X/D FOR 3 D BEGINNING 2 D PRIOR TO CARCINOGEN DOSE (STUDY DURATION: 93 D), Route [Inhibitor]: GAVAGE, Species: RAT, Strain/Sex: SPRAGUE-DAWLEY/FEMALE, Target Tissue: Type of Lesion: MAMMARY GLAND: TUMOR, Dose [Carcinogen]: 15 MG IN 0.5 ML DMSO TOGETHER WITH THE LAST DOES OF INHIBITOR (STUDY DURATION: 93 D), Promoter: NONE): 63%, 39%, 38%, p<0.05
